pEC50: −log10 of the molar value. Where two headings read alike, the source gives them in different places.
Key:
[1] = target: T1, hS1P4 (Homo sapiens, UniProt O95977); experiment: […]GTPgammaS binding, CHO-K1 membranes; format: biochemical
T1 construct: gene S1PR4; receptor stably expressed in CHO-K1 cells
T1 sequence (O95977 1-384): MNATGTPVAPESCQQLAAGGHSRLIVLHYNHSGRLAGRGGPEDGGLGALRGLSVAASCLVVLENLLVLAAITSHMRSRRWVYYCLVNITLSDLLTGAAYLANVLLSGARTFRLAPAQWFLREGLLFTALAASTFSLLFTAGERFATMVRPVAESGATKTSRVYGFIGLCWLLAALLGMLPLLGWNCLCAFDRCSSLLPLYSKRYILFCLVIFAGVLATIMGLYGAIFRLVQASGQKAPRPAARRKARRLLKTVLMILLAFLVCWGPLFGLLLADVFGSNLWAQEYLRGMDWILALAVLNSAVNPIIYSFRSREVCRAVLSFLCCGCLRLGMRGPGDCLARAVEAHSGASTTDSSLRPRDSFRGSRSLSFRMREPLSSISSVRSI

[2] = target: T2, hS1P2 (ProLink-tagged, PathHunter) (Homo sapiens, UniProt O95136); experiment: PathHunter beta-arrestin recruitment; format: cell-based
T2 construct: gene S1PR2; PathHunter HEK293 cells, ProLink-tagged; N-terminal HA tag in the internalization assay

[3] = target: T3, hS1P5 (Homo sapiens, UniProt Q9H228); experiment: […]GTPgammaS binding, CHO-K1 membranes; format: biochemical
T3 construct: gene S1PR5; receptor stably expressed in CHO-K1 cells

[4] = target: T4, hS1P3 (Homo sapiens, UniProt Q99500); experiment: […]GTPgammaS binding, CHO-K1 membranes; format: biochemical
T4 construct: gene S1PR3; receptor stably expressed in CHO-K1 cells

[5] = target: T5, hS1P5 (ProLink-tagged, PathHunter) (Homo sapiens, UniProt Q9H228); experiment: PathHunter beta-arrestin recruitment; format: cell-based
T5 construct: gene S1PR5; ProLink-tagged receptor, PathHunter HEK293 cells

[6] = target: T6, hS1P2 (Homo sapiens, UniProt O95136); experiment: […]GTPgammaS binding, CHO-K1 membranes; format: biochemical
T6 construct: gene S1PR2; receptor stably expressed in CHO-K1 cells

[7] = target: T7, hS1P4 (ProLink-tagged, PathHunter) (Homo sapiens, UniProt O95977); experiment: PathHunter beta-arrestin recruitment; format: cell-based
T7 construct: gene S1PR4; ProLink-tagged receptor, PathHunter HEK293 cells
T7 sequence (O95977 1-384): T1 sequence (O95977 1-384)

[8] = target: T7, hS1P4 (ProLink-tagged, PathHunter); experiment: cell-based; set-up: species or system PathHunter HEK293; PathHunter beta-arrestin recruitment, agonist concentration-response; conditions: HEK293, read-out: S1P4 β-Arrestin Emax, % of S1P
Excerpt: (§1) We extended our pharmacological analysis of etrasimod and the other test compounds on S1P2–5. […] All tested compounds were agonists of S1P5, inducing both G protein signaling and β‐arrestin recruitment (Table S2).

[9] = target: T5, hS1P5 (ProLink-tagged, PathHunter); experiment: cell-based; set-up: species or system PathHunter HEK293; PathHunter beta-arrestin recruitment, agonist concentration-response; conditions: HEK293, read-out: S1P5 β-Arrestin Emax, % of S1P
Excerpt: as §1

[10] = target: T4, hS1P3; experiment: biochemical; format: CHO-K1 membranes; set-up: [35S]GTPgammaS binding to membranes, agonist concentration-response; conditions: read-out: S1P3 GTPγS Emax, % of S1P
Excerpt: (§2) All tested compounds were agonists of S1P5, inducing both G protein signaling and β‐arrestin recruitment (Table S2).

[11] = target: T3, hS1P5; experiment: biochemical; format: CHO-K1 membranes; set-up: [35S]GTPgammaS binding to membranes, agonist concentration-response; conditions: read-out: S1P5 GTPγS Emax, % of S1P
Excerpt: as §2

[12] = target: T1, hS1P4; experiment: biochemical; format: CHO-K1 membranes; set-up: [35S]GTPgammaS binding to membranes, agonist concentration-response; conditions: read-out: S1P4 GTPγS Emax, % of S1P
Excerpt: as §2

[13] = target: T2, hS1P2 (ProLink-tagged, PathHunter); experiment: receptor internalization, fluorescence microscopy; format: cell-based; conditions: N-terminal HA tag, 37 °C
[14] = target: T8, hS1P3 (ProLink-tagged, PathHunter) (Homo sapiens, UniProt Q99500); experiment: cell-based; set-up: species or system PathHunter HEK293; PathHunter beta-arrestin recruitment, agonist concentration-response; conditions: HEK293, read-out: S1P3 β-Arrestin Emax, % of S1P
T8 construct: gene S1PR3; ProLink-tagged receptor, PathHunter HEK293 cells
Excerpt: as §1

[15] = target: T6, hS1P2; experiment: biochemical; format: CHO-K1 membranes; set-up: [35S]GTPgammaS binding to membranes, agonist concentration-response; conditions: read-out: S1P2 GTPγS Emax, % of S1P
Excerpt: as §2

T5 sequence (Q9H228 whole entry): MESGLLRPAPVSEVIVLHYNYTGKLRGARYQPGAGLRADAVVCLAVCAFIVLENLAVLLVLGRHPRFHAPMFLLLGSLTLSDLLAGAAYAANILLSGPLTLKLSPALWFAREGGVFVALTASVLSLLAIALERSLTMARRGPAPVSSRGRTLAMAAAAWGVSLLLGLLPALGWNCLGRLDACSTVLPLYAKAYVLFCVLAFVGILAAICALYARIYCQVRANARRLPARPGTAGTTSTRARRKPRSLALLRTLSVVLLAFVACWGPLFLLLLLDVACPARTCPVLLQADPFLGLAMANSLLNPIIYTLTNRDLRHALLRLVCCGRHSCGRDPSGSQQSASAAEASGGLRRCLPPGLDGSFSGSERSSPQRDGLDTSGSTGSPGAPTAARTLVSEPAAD
T3 sequence (Q9H228 whole entry): as above
T6 sequence (O95136 whole entry): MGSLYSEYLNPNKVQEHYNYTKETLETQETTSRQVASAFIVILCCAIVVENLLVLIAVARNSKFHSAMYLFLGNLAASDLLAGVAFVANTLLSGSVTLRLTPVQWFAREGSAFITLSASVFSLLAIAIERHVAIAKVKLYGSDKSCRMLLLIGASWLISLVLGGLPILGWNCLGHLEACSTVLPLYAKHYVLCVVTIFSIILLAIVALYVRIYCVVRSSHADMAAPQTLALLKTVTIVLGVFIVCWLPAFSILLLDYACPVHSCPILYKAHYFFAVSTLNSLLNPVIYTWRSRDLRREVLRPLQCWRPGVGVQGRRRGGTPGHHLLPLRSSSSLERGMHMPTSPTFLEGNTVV
T2 sequence (O95136 whole entry): as above
T4 sequence (Q99500 whole entry): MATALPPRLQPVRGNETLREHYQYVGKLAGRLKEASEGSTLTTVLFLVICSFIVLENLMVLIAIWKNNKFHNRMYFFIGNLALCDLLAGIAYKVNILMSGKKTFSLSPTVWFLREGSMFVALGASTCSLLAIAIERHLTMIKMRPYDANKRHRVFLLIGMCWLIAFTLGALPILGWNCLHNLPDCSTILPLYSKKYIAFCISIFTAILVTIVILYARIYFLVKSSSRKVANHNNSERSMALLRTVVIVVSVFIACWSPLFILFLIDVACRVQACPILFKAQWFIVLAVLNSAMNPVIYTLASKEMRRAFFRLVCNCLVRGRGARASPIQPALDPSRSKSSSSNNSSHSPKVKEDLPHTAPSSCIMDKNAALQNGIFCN
T8 sequence (Q99500 whole entry): as above

Compound	pEC50 [1]	pEC50 ([2]; read-out: EC50)	pEC50 [3]	pEC50 [4]	pEC50 [5]	pEC50 ([6]; read-out: EC50)	pEC50 [7]	Emax [8]	Emax [9]	Emax [10]	Emax [11]	Emax [12]	Emax [14]	Emax [15]	receptor internalization, fluorescence microscopy [13]	EC50 ([2]; agonist, 0.1% fatty acid-free BSA, room temperature, 2 h)	EC50 ([6]; agonist, 0.1% fatty acid-free BSA, room temperature, 10 mM MgCl2)
O=C(O)C[C@H]1CCc2c1[nH]c1ccc(OCc3ccc(C4CCCC4)c(C(F)(F)F)c3)cc21 [Etrasimod]	< 5.00	< 5.00	7.20	5.22	7.20	< 5.00	6.85	53.9%	85.7%	41.5%	72%	–	–	–	–	–	–
CC(C)Oc1ccc(-c2nc(-c3cccc4c3CCC4=O)no2)cc1C#N [Ozanimod(K)]	< 5.00	–	7.23	< 5.00	7.02	–	< 6.30	89.1%	115%	–	105%	–	–	–	–	–	–
CC(C)Oc1ccc(-c2nc(-c3cccc4c3CC[C@@H]4NCCO)no2)cc1C#N [Ozanimod]	< 5.00	–	7.54	< 5.22	7.91	–	< 6.30	–	–	–	–	–	–	–	Fingolimod(P) and ozanimod induced robust S1P2 internalization in a dose‐dependent and saturable fashion	–	–

These reach a higher pEC50 [1]. Values come first.

pEC50 [1]	pEC50 ([2]; read-out: EC50)	pEC50 [3]	pEC50 [4]	pEC50 [5]	pEC50 ([6]; read-out: EC50)	pEC50 [7]	Emax [8]	Emax [9]	Emax [10]	Emax [11]	Emax [12]	Emax [14]	Emax [15]	Compound	receptor internalization, fluorescence microscopy [13]	EC50 ([2]; agonist, 0.1% fatty acid-free BSA, room temperature, 2 h)	EC50 ([6]; agonist, 0.1% fatty acid-free BSA, room temperature, 10 mM MgCl2)
6.29	–	–	< 5.00	–	–	< 6.30	92.6%	107%	–	118%	134%	–	–	CCc1cc(/C(C)=N/OCc2ccc(C3CCCCC3)c(C(F)(F)F)c2)ccc1CN1CC(C(=O)O)C1 [Siponimod]	–	–	–
8.21	–	–	–	–	–	8.16	77.6%	48.4%	39.1%	69.5%	121%	9.1%	35.2%	CCCCCCCCc1ccc(CCC(N)(CO)COP(=O)(O)O)cc1 (stereo not shown) [Fingolimod(P)]	–	fingolimod(P) was a weak agonist, in terms of both potency and efficacy	fingolimod(P) was a weak agonist, in terms of both potency and efficacy
